Source: US11708344B2, “Flavone derivatives for the treatment and prophylaxis of hepatitis B virus disease” (Hoffmann-La Roche Inc., priority 2018, dated 2023)
pIC50: −log10 of the molar value. Like-named read-outs stand apart in the source and are kept apart here.

Legend:
[1] = system: HBsAg in HBV-infected PHH; assay: Cryopreserved primary human hepatocytes (PHH) HBV infection assay, extracellular HBsAg (CLIA); assay type: cell-based
Summary of the method: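 Cryopreserved PHH were infected with 5.8×10^6 HBV genome equivalents in medium with 4% PEG8000 and 1% DMSO. After 9 days of treatment, extracellular HBsAg was measured by CLIA, and IC50 was derived from a 4-parameter logistic fit.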

[2] = Human microsome stability assay; assay type: in vitro ADME; conditions: human liver microsomes, 1 μM test compound, 0.5 mg/mL microsomal protein, 37° C., pH 7.4, 0-30 minutes
Summary of the method: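 Compound (1 μM) incubated at 37 °C with human liver microsomes (0.5 mg/mL protein) in 100 mM potassium phosphate, pH 7.4, after 10 min preincubation; started with NADPH regenerating system. Sampled at 0–30 min, quenched with cold ACN; remaining parent quantified by LC-MS/MS, with no-NADPH controls.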

[3] = system: HBeAg (surrogate marker for cccDNA) in HepDES19 cells; assay: Engineered HepDES19 primary screen assay (HBeAg ELISA); assay type: cell-based, HBV; conditions: Hepatitis B virus, HepDES19, 120 h, read-out: IC50 (HBeAg level, HepDES19 primary screen assay), HepDES19 cells, 5 days compound incubation, HBeAg ELISA
Summary of the method: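 HepDES19 cells were induced by Tet withdrawal for 8 days, then treated with half-log compound dilutions (1% DMSO final) for 5 days at 37 °C. HBeAg was measured by ELISA as the cccDNA surrogate, viability by CCK-8, and IC50 from a 4-parameter logistic fit.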

[4] = Hepatitis B virus, Hepatocyte, 216 h, read-out: HBsAg IC50, Cryopreserved PHH infected with HBV, 9 days post-compound treatment, extracellular HBsAg

Compound	pIC50 [1, 4]	Clearance of Human microsome [2]	pIC50 [3]	pIC50 ([1]; read-out: HBsAg IC50, Cryopreserved PHH infected with HBV, 9 days post-compound treatment, extracellular HBsAg)
O=c1cc(-c2cc3c(cc2OCCO[C@H]2C[C@H](C(=O)O)C2)OCO3)oc2c(Cl)cccc12 [Example C043-B, Trans-3-[2-[[6-(8-chloro-4-oxo-chromen-2-yl)-1,3-benzodioxo1-5-yl]oxy]ethoxy]cyclobutanecarboxylic acid]	5.28	7.72 mL/min/kg	5.03	
COc1cc(OCCCC(=O)O)c(-c2cc(=O)c3cccc(Cl)c3o2)cc1OC [Example A056, 4-[2-(8-chloro-4-oxo-chromen-2-yl)-4,5-dimethoxy-phenoxy]butanoic acid]	5.04	6.15 mL/min/kg	5.51	
O=c1cc(-c2ccccc2OCCO[C@H]2C[C@@H](C(=O)O)C2)oc2c(Cl)cccc12 [Example C025-A, Cis-3-[2-[2-(8-chloro-4-oxo-chromen-2-yl)phenoxy]ethoxy]cyclobutanecarboxylic acid]	5.59	6.15 mL/min/kg	6.72	
Cc1cc(-c2cc(=O)c3cccc(Cl)c3o2)c(OCCCC(=O)O)cc1Br [Example A054, 4-[5-bromo-2-(8-chloro-4-oxo-chromen-2-yl)-4-methyl-phenoxy]butanoic acid]	5.38	6.15 mL/min/kg	5.83	
Cc1ccc(-c2cc(=O)c3cccc(Cl)c3o2)c(OCCCOCC(=O)O)c1 [Example C002, 2-[3-[2-(8-chloro-4-oxo-chromen-2-yl)-5-methyl-phenoxy]propoxy]acetic acid]	5.61	6.15 mL/min/kg	6.46	
Cc1cc(-c2cc(=O)c3cccc(Cl)c3o2)c(OCCC(=O)O)cc1OC(F)(F)F [Example A017, 3-[2-(8-chloro-4-oxo-chromen-2-yl)-4-methyl-5-(trifluoromethoxy)phenoxy]propanoic acid]	5.74	9.98 mL/min/kg	5.50	
Cc1cc(-c2cc(=O)c3cccc(Cl)c3o2)c(O[C@H]2C[C@@H](C(=O)O)C2)cc1Cl [Example B012-A, Cis-3-[5-chloro-2-(8-chloro-4-oxo-chromen-2-yl)-4-methyl-phenoxy]cyclobutanecarboxylic acid]		6.15 mL/min/kg	5.49	5.22
COc1cc(OCCO[C@H]2C[C@@H](C(=O)NS(C)(=O)=O)C2)c(-c2cc(=O)c3cccc(Cl)c3o2)cc1OC [Example C125, 3-[2-[2-(8-chloro-4-oxo-chromen-2-yl)-4,5-dimethoxy-phenoxy]ethoxy]-N-methylsulfonyl-cyclobutanecarboxamide]	5.14	6.15 mL/min/kg	5.31	
CS(=O)(=O)NC(=O)[C@H]1C[C@@H](Oc2cc(OC(F)(F)F)ccc2-c2cc(=O)c3cccc(Cl)c3o2)C1 [Example B047-A, Cis-3-[2-(8-chloro-4-oxo-chromen-2-yl)-5-(trifluoromethoxy)phenoxy]-N-methylsulfonyl-cyclobutanecarboxamide]	5.26	6.15 mL/min/kg	5.71	
O=C(O)C1CCC(Oc2cc(Br)ccc2-c2cc(=O)c3cccc(Cl)c3o2)CC1 (stereo not drawn) [Example B010, 4-[5-bromo-2-(8-chloro-4-oxo-chromen-2-yl)phenoxy]cyclohexanecarboxylic acid]	5.15	6.15 mL/min/kg	5.56	
CC(CC(=O)O)OC(=O)CC(C)Oc1cc(C(F)(F)F)ccc1-c1cc(=O)c2cccc(Cl)c2o1 (stereo not drawn) [Example A040, 3-[3-[2-(8-chloro-4-oxo-chromen-2-yl)-5-(trifluoromethyl)phenoxy]butanoyloxy]butanoic acid]	5.10	6.15 mL/min/kg	6.28	
O=c1cc(-c2ccc(F)cc2OCCO[C@H]2C[C@@H](C(=O)O)C2)oc2c(Cl)cccc12 [Example C034-A, Cis-3-[2-[2-(8-chloro-4-oxo-chromen-2-yl)-5-fluoro-phenoxy]ethoxy]cyclobutanecarboxylic acid]	5.33	6.15 mL/min/kg	6.28	
O=C(O)CCCOc1cc(C(F)(F)F)ccc1-c1cc(=O)c2cccc(Cl)c2o1 [Example A052, 4-[2-(8-chloro-4-oxo-chromen-2-yl)-5-(trifluoromethyl)phenoxy]butanoic acid]	5.16	8.01 mL/min/kg	6.67	
O=c1cc(-c2ccccc2OCCO[C@H]2C[C@@H](C(=O)O)C2)oc2c(Cl)cc(F)cc12 [Example C036-A, Cis-3-[2-[2-(8-chloro-6-fluoro-4-oxo-chromen-2-yl)phenoxy]ethoxy]cyclobutanecarboxylic acid]	5.62	6.15 mL/min/kg	6.58	
O=C(O)C1CC(Oc2cc(C(F)(F)F)ccc2-c2cc(=O)c3cccc(Cl)c3o2)C1 (stereo not drawn) [Example B003, 3-[2-(8-chloro-4-oxo-chromen-2-yl)-5-(trifluoromethyl)phenoxy]cyclobutanecarboxylic acid]	5.36	6.15 mL/min/kg	6.33	
O=C(O)CCOc1cc(Br)ccc1-c1cc(=O)c2cccc(Cl)c2o1 [Example A004, 3-[5-bromo-2-(8-chloro-4-oxo-chromen-2-yl)phenoxy]propanoic acid]	5.18	6.15 mL/min/kg	6.43	
COc1cc(OCCO[C@H]2C[C@@H](C(=O)NS(=O)(=O)C3CC3)C2)c(-c2cc(=O)c3cccc(Cl)c3o2)cc1OC [Example C119, Cis-3-[2-[2-(8-chloro-4-oxo-chromen-2-yl)-4,5-dimethoxy-phenoxy]ethoxy]-N-cyclopropylsulfonyl-cyclobutanecarboxamide]	5.14	6.39 mL/min/kg	5.46	
O=c1cc(-c2cc(C(F)(F)F)c(Br)cc2OCCO[C@H]2C[C@H](C(=O)O)C2)oc2c(Cl)cccc12 [Example C042-B]	5.05	6.15 mL/min/kg	4.82	
O=C(O)[C@H](COc1cc(C(F)(F)F)ccc1-c1cc(=O)c2cccc(Cl)c2o1)NS(=O)(=O)C1CC1 [Example A096, (2S)-3-[2-(8-chloro-4-oxo-chromen-2-yl)-5-(trifluoromethyl)phenoxy]-2-(cyclopropylsulfonylamino)propanoic acid]	5.91	6.15 mL/min/kg	6.94	
O=C(O)CCOc1cc(OC(F)(F)F)ccc1-c1cc(=O)c2cccc(Cl)c2o1 [Example A009, 3-[2-(8-chloro-4-oxo-chromen-2-yl)-5-(trifluoromethoxy)phenoxy]propanoic acid]	5.83	6.57 mL/min/kg	6.39	
O=c1cc(-c2ccccc2OCCO[C@H]2C[C@H](C(=O)O)C2)oc2c(Cl)cccc12 [Example C025-B, Trans-3-[2-[2-(8-chloro-4-oxo-chromen-2-yl)phenoxy]ethoxy]cyclobutanecarboxylic acid]	5.69	6.15 mL/min/kg	6.69	
O=c1cc(-c2cc(F)ccc2OCCO[C@H]2C[C@@H](C(=O)O)C2)oc2c(Cl)cccc12 [Example C033-A, Cis-3-[2-[2-(8-chloro-4-oxo-chromen-2-yl)-4-fluoro-phenoxy]ethoxy]cyclobutanecarboxylic acid]	5.71	6.15 mL/min/kg	5.87	
CCNS(=O)(=O)N[C@@H](COc1cc(C(F)(F)F)ccc1-c1cc(=O)c2cccc(Cl)c2o1)C(=O)O [Example A099, (2S)-3-[2-(8-chloro-4-oxo-chromen-2-yl)-5-(trifluoromethyl)phenoxy]-2-(ethylsulfamoylamino)propanoic acid]	6.85	9.53 mL/min/kg	7.18	
O=c1cc(-c2ccccc2O[C@H]2C[C@@H](C(=O)O)C2)oc2c(Br)cccc12 [Example B022-A, Cis-3-[2-(8-bromo-4-oxo-chromen-2-yl)phenoxy]cyclobutanecarboxylic acid]	5.42	6.15 mL/min/kg	6.95	
COc1cc(OCCO[C@H]2C[C@@H](C(=O)O)C2)c(-c2cc(=O)c3cccc(Cl)c3o2)cc1OCC(F)(F)F [Example C085, cis-3-[2-[2-(8-chloro-4-oxo-chromen-2-yl)-5-methoxy-4-(2,2,2-trifluoroethoxy)phenoxy]ethoxy]cyclobutanecarboxylic acid]	5.04	6.15 mL/min/kg	6.57	
COc1cc(-c2cc(=O)c3cccc(Cl)c3o2)c(OCCCOCC(=O)O)cc1Cl [Example C016, 2-[3-[5-chloro-2-(8-chloro-4-oxo-chromen-2-yl)-4-methoxy-phenoxy]propoxy]acetic acid]	5.15	6.15 mL/min/kg	5.61	
